The text below walks through data of patent US12539406B2, “Electrostimulation based drug delivery system and method for using thereof” (City University of Hong Kong, priority 2022, dated 2026).

Each structure is given as a SMILES string.

Data set [1] in a line: long-term drug release from PLGA microneedle patches in PBS. In kind it is physicochemical. The following applies: loaded in PLGA II microneedle patch, PBS solution at 37° C., after 15 days. Here is the method: In addition, the long-term drug release performance of the PLGA II microneedle patch is conducted by loading aspirin and ibuprofen, which are two commonly used drugs in anti-inflammation. Aspirin- and ibuprofen-loaded PLGA microneedle patches are immersed in PBS solution at 37° C. for one month. […] The aspirin releases more than 80% while ibuprofen releases around 70% after 15 days, indicating a promising drug delivery performance of the PLGA microneedles.
Commercial aspirin (99%, Rhawn) or ibuprofen (98%, Macklin) were dissolved in chloroform and mixed with PLGA solution, where the mass of aspirin and ibuprofen are the weight ratio of 10% and 5% of PLGA polymers, respectively. Then the composite solution was added in a PDMS microneedle mold. The solutions in the mold were put in a vacuum over at 40° C. until no solvent remained. Finally, the solidified PLGA microneedles with mold were put at 100° C. heating stage for 2 h to remove residual solvent. After that, the obtained PLGA microneedles were heat pressed on the wireless electric stimulative electrodes, followed by depositing W (˜1000 nm) on the PLGA microneedle to yield the conductive microneedle electrodes.

Data set [2] is described as follows: model drug release into agarose gel. The following applies: PLGA II microneedle patch inserted into agarose gel, 5 days. In kind it is physicochemical. The source says: The Rhodamine B-loaded PLGA II microneedle patch is then inserted into an agarose gel with a parafilm layer. The gel becomes red after the insertion of PLGA II microneedle patch loaded with Rhodamine B after 5 days while the control sample is still white. The insertion holes created by PLGA II with Rhodamine B show a higher florescence intensity (right panel in FIG. 4A) compared with that of the agar inserted by pure PLGA II microneedle patch (left panel in FIG. 4A).

For `CC(C)Cc1ccc(C(C)C(=O)O)cc1` (stereo not drawn) [ibuprofen], the drug release ratio result in data set [1] is given as “around 70%”. Regarding `CCN(CC)c1ccc2c(-c3ccccc3C(=O)O)c3ccc(=[N+](CC)CC)cc-3oc2c1.[Cl-]` [Rhodamine B], the “release of model drug from microneedle tips (fluorescence)” value in data set [2] was “successfully released”. Regarding `CC(=O)Oc1ccccc1C(=O)O` [aspirin], in data set [1], the drug release ratio entry is “more than 80%”.
